Measured values as given in US6716819B2, “Use of xylitol to reduce ionic strength and activate endogenous antimicrobials for prevention and treatment of infections” (University of Iowa Research Foundation, priority 2000, dated 2004).

Experiments:
CF epithelia = experiment: ASL Cl- concentration and volume (isotope method); format: cell-based, human
Protocol: FIGS. 3(A-B). The effect of apical xylitol on non-CF and CF ASL Cl^− concentration and volume. Five μl of isosmotic xylitol or saline solution were applied to the apical surface. Twenty-four hours later, ASL Cl^− concentration (A) and volume (B) were determined. Asterisk indicates a difference between the saline and the xylitol solutions, p<0.05. N=15 to 18 from 3 CF and 3 non-CF specimens.
Airway epithelial cells were isolated from tracheal and bronchial tissue. […] All epithelia were evaluated with scanning electron microscopy for the development of a ciliated apical surface.
The ASL Cl^− concentration was measured as previously described (Zabner, J., J. J. Smith, P. H. Karp, J. H. Widdicombe, and M. J. Welsh. 1998. Loss of CFTR chloride channels alters salt absorption by cystic fibrosis airway epithelia in vitro. Mol. Cell. 2:397-403). […] The ratio of ^36Cl to ^3H2O was determined by liquid scintillation. […] From these measurements, it was determined the ^3H2O activity per μl of water and the cpm of ^36Cl per mole of Cl^− in the basolateral medium. ASL volume was calculated from the ASL ^3H2O collected divided by the ratio of ^3H2O activity per μl of basolateral medium. Chloride content was calculated from the ASL ^36Cl collected divided by the ratio of ^36Cl per mole of Cl^− in the basolateral medium ASL Cl^− concentration was calculated from the Cl^− content divided by the volume of ASL. […]

E. coli = experiment: Bacterial killing by nasal lavage fluid, luminescence assay; format: cell-based; details: increasing xylitol concentration (serial dilutions of 300 mM), 4 hours at 30° C.
Protocol: FIG. 4. Effect of modifying ionic strength and xylitol concentration of killing of E. coli by nasal lavage liquid. Nasal lavage liquid was diluted with increasing concentrations of NaCl (bottom X-axis) or xylitol (top X-axis). SEM are smaller than the symbol.
Nasal lavage fluid was collected from normal volunteers. A flexible catheter (18-gauge; Jelco, Tampa, Fla.) was inserted into each nostril and the area flushed four times with 4 ml of sterile water. Cells were removed by centrifugation and the fluid was filtered with a sequential 0.8/0.2 μm Supor Acrodisc PF (GelamnSciences, Ann Arbor, Mich.). To study the effect of xylitol on bacterial killing by endogenous antimicrobial factors, a luminescence assay was used in which E. coli express the genes from Photorhabdus luminescens (Travis, S. M., B. A. D. Conway, J. Zabner, J. J. Smith, N. N. Anderson, P. K. Singh, E. P. Greenberg, and M. J. Welsh. 1999. Activity of Abundant Antimicrobials of the Human Airway. Am. J. Respir. Cell. Mol. Biol. 20:872-879). As previously described, this assay reports bacterial viability. Briefly, bacteria were grown to exponential phase at 30° C., centrifuged, and resuspended in 20 mM potassium phosphate with 2% Lauria-Bertani medium. […] After incubation at 30° C. for 4 hours, luminescence was measured with a luminometer (MLX Luminometer; Dynex Technologies Inc.; Chantilly, Va.). […]

[1] = incorporated in chewing gum; cited from earlier work

OC[C@@H](O)[C@H](O)[C@@H](O)CO [xylitol]
estimated ASL volume (CF epithelia; 24 hours after 5 μl apical): increased | ASL Cl- concentration (CF epithelia; 24 hours after 5 μl isosmotic xylitol solution apical): fell to values observed in non-CF epithelia | killing of E. coli by nasal lavage fluid (E. coli): not affected | effect on dental caries [1]: prevent dental caries
